Where two headings read alike, the source gives them in different places.
Tests used:
[1] = tested on: HAS2 (hyaluronic acid synthase 2); test: UVB-induced senescence assay: HAS2 gene expression (qPCR); format: cell-based, human; conditions: HDF, 2 cycles of UVB, compound day 1 to 7, Figure 2B; also: key: ↑: increase; ↓: decrease; hyphens that indicate no effect (-)
Method: (§1) In the second approach, we established a method for inducing senescence in these cells with 2 cycles of UVB irradiation 72h apart (Figure 2A). The use of UVA to induce senescence was discarded due to its considerably longer time requirement, being unsuitable to screen 30 compounds within a reasonable period. Cells were treated with these compounds throughout the duration of the assay and cellular senescence was monitored with two markers: accumulation of SA-β-galactosidase (SA-β-Gal) activity, and the decrease in expression of HAS2 (hyaluronic acid synthase 2), a previously reported marker of skin senescence.
(§2) Figure 2 (A) Schematic representation of the protocol for senescence induction using UVB irradiation. Cells were treated -/+ the compounds from day 1 to 7 after seeding, irradiated with UVB on days 2 and 5 and harvested for analysis on day 7. […] (C) Phase-contrast (left column) and bright field (right column) microscope images of SA-β-Gal staining showing non-irradiated cells, UVB-irradiated cells non-treated and treated with Gallic acid or Shikimic acid at the indicated concentrations. (D) Percentage of SA-β-Gal positive cells and (E) Relative HAS2 mRNA levels in non-irradiated cells, UVB-irradiated cells and UVB-irradiated cells treated with Gallic acid or Shikimic acid at the indicated concentrations. Student T-test, *p<0.05, **p<0.01, ***p<0.001.
RNA was extracted from cell pellets using the Total RNA Purification Kit (Norgen, Canada), according to the manufacturer’s protocol. Extracted RNA was quantified using a NanoDrop® ND-1000 UV-Vis Spectrophotometer (Thermo Fisher Scientific, USA) and 300 ng of RNA were retrotranscribed to cDNA using the PrimeScriptTM RT reagent kit (Takara Bio Inc., Japan). cDNA was diluted 1/10 in ultrapure water and qPCR mix was prepared by adding cDNA (12 ng), SYBR green supermix (Bio Rad, USA), forward and reverse primers (0.2μM). The primers and their respective sequences are listed in Supplementary Table 1. qPCR protocol included one step at 95° C for 30 s, 40 cycles at 95° C for 10s, and 60° C for 1min. The results were analyzed with Bio-Rad CFX Manager software. BACT was used as a housekeeping gene to normalize gene expression.
(§3) Senescence induction by UVB irradiation For the non-irradiation control conditions, HDF were […]
(§4) After 24h, culture medium was removed and well plates. After 24h, culture medium was removed replaced by fresh cell culture medium containing the and replaced with fresh cell culture medium containing compounds at different concentrations. After 24h, the compounds at different concentrations. […]
(§5) cell culture medium was removed, and cells were cells/plate in fresh cell culture medium containing the irradiated at 25 mJ/cm2 of UVB light (312 nm) in a Bio- compound in 6-well plates. After 3 days, cells were […]
(§6) amount of PBS. PBS was then removed and fresh cell fresh cell culture medium containing the compound in culture medium with the compound was added to each 6-well plates. After 2 days, cells were processed well. After 3 days, cells were irradiated again under the according to the qPCR, β-Gal staining, apoptosis, cell same conditions. After 2 days, cells were processed cycle or immunofluorescence protocols. according to the qPCR, β-Gal staining, apoptosis, cell cycle or immunofluorescence protocols.

[2] = tested on: primary human dermal fibroblasts (HDFs)
Description: In our efforts to identify novel factors that could prevent skin cell senescence, we developed a screening process to identify new modulators of the protective role of sirtuins in UV-induced senescence. For this purpose, we established a culture of primary human dermal fibroblasts (HDFs). […] Our first step in the screening was to establish the optimal concentrations of these compounds in the case of HDFs. […] Once established, we took these parameters into account to decide the specific working range of concentrations for each compound.
Human dermal fibroblasts (HDFs) (Promocell, Germany) from 40-year old Caucasian women were used as the in vitro model for compound viability and efficacy screening. Cells were cultured in Dulbecco's modified eagle medium (DMEM) low glucose (Biowest, France) supplemented with 10% fetal bovine serum (FBS) (Capricorn Scientific, Germany) and 10 U/mL penicillin/streptomycin (Biowest, France) in a humidified incubator at 37° C and 5% CO2. For cell passage, cells at 80% confluence were trypsinized and plated at 60% confluence. Cells between passage 13 and 18 were used for the assays. For the SIRT1 in vitro assay, HEK293 cells (ATCC, USA), used to transfect and immunoprecipitate SIRT1 protein, were grown in DMEM high glucose (Thermo Fisher Scientific, USA), supplemented with 10% FBS in a humidified incubator at 37° C and 5% CO2. The following experiments were all performed in triplicate.
(§7) The protocol for senescence induction using UVB irradiation is described in the Supplementary Methods. SA-β-Gal staining, WST-1, sulforhodamine B (SRB) and trypan blue assays were performed as previously described. For the siRNA experiments, the protocol for senescence induction using UVB irradiation was the same as in the Supplementary Methods. Specific siRNA (Horizon discovery, UK) for SIRT1, SIRT2, SIRT6, BiP or scramble siRNA were incubated for 6 hours before each irradiation step.

[3] = tested on: H3K9ac (the target of SIRT1, SIRT2 and SIRT6); test: Sirtuin activity assay in HDF: H3K9ac levels (Western blot); format: cell-based, human; conditions: HDF treated 24h; for SIRT1,2,6 H3K9ac: Figure 1B; as to SIRT1,2,6 H3K9ac: key: ↑: increase; ↓: decrease; hyphens that indicate no effect (-)
Method: (§8) Figure 1 (A) Schematic representation of the compound testing for sirtuin activity evaluation in HDF. Cells were treated with or without the compounds for 24h and harvested for analysis. […] (C) Western Blot analysis and (D) quantification of H4K16ac and H3K9ac levels in cells treated with Resveratrol or Shikimic acid at the indicated concentrations. H4K16 and H3K9 levels were normalized to H4 and H3 levels respectively. Student T-test, *p<0.05, **p<0.01, ***p<0.001.
(§9) HDFs were plated in 100x20 mm2 cell culture plates and after 24h, fresh cell culture medium containing the compounds was added. After 24h, cells were detached with cell scrapers, harvested, and processed for qPCR or western blot.
(§10) Protein levels were analyzed as previously described. Cells were directly lysed in 1x Laemmli Buffer (Bio-Rad, USA), incubated at 95° C and centrifuged. Supernatant was subjected to SDS-polyacrylamide gel electrophoresis, and successive steps were performed as described. The list of antibodies used is included in Supplementary Table 2.

[4] = tested on: UVB-irradiated human dermal fibroblasts (HDFs); test: UVB-induced senescence assay: SA-β-Gal staining; format: cell-based; conditions: for β-Gal: HDF, 2 cycles of UVB, compound day 1 to 7, Figure 2B; for effect of sirtuin inhibitor on the protective effect of SA on senescence (SA-β-Gal and HAS2 expression): SA 10, 25, 50 mM plus EX-527 1 μM, AGK2 2 μM or OSS128167 200 μM; as to β-Gal: key: ↑: increase; ↓: decrease; hyphens that indicate no effect (-)
Method: as §1, §2, §7, §3, §4, §5, §6

[5] = tested on: H4K16ac (the target of SIRT1 and SIRT2); test: Sirtuin activity assay in HDF: H4K16ac levels (Western blot); format: cell-based, human; conditions: HDF treated 24h; for SIRT1,2 H4K16ac: Figure 1B; as to SIRT1,2 H4K16ac: key: ↑: increase; ↓: decrease; hyphens that indicate no effect (-)
Method: as §8, §9, §10

[6] = HDFs, WST-1 cell viability test
[7] = HDFs, WST-1 cell viability test, maximum non-cytotoxic dose

| Compound | HAS2 expression [1] | LD50 [2, 6] [mM] | Max. non-cyt. doses [2, 7] [mM] | β-Gal [4] | SIRT1,2 H4K16ac [5] | SIRT1,2,6 H3K9ac [3] | SA-β-Gal accumulation/staining ([4]; UVB-irradiated HDF) | LD50 ([2]; female, human) [mM] | Max. non-cyt. doses ([2]; female, human) [mM] | also measured |
| --- | --- | --- | --- | --- | --- | --- | --- | --- | --- | --- |
| C/C(=C\CNc1ncnc2[nH]cnc12)CO [Zeatin] | - | 2.462 | 1 | - | - |  |  |  |  | effect on H3K9ac levels [3]: reduced the levels of H3K9ac only |
| N#C/C(=C\c1ccc(-c2cc(Cl)ccc2Cl)o1)C(=O)Nc1cccc2ncccc12 [AGK2, reference compound] |  |  |  |  |  |  |  |  |  | effect of sirtuin inhibitor on the protective effect of SA on senescence (SA-β-Gal and HAS2 expression) ([4]; UVB-irradiated HDF): produced no clear effect |
| C=C[C@](C)(O)CC[C@@H]1[C@@]2(C)CCCC(C)(C)[C@@H]2CC[C@@]1(C)O [Sclareol] | - | 0.04 | 0.02 | - |  | - |  |  |  |  |
| COc1cc(-c2coc3cc4c(c(OC)c3c2=O)OCO4)cc(OC)c1OC [Irisflorentin] |  | 0.049 | 0.01 | - | - | - |  |  |  |  |
| O=C(O)CCCC[C@@H]1CCSS1 (racemic) [Lipoic acid] |  |  |  | - | - | - | did not change the level of SA-β-Gal staining |  |  | Max. non-cyt. doses [2]: 1 mM |
| C[C@@H]1O[C@@H](O[C@@H]2[C@@H](O)[C@H](OCCc3ccc(O)c(O)c3)O[C@H](CO)[C@H]2OC(=O)/C=C/c2ccc(O)c(O)c2)[C@H](O)[C@H](O)[C@H]1O [Verbascoside] |  | 0.122 | 0.05 | - | - | - | did not change the level of SA-β-Gal staining |  |  |  |
| NCCS(=O)(=O)O [Taurine] |  |  |  | - | - | - | did not change the level of SA-β-Gal staining | 396.58 | 150 |  |
| O=C(O)c1cc(O)c(O)c(O)c1 [Gallic acid] |  |  |  | - | - | - |  | 0.179 | 0.1 |  |
| O=C(Nc1ccc(O)c(C(=O)O)c1)c1cccc(NC(=O)c2ccco2)c1 [OSS128167, reference compound] |  |  |  |  |  |  |  |  |  | effect of sirtuin inhibitor on the protective effect of SA on senescence (SA-β-Gal and HAS2 expression) ([4]; UVB-irradiated HDF): produced no clear effect |
| C=C[C@@H]1C2=CCOC(=O)C2=CO[C@H]1O[C@@H]1O[C@H](CO)[C@@H](O)[C@H](O)[C@H]1O [Gentiopicrin] | - | 13.825 |  | - |  | - |  |  | 2.5 |  |
| O=C(CCc1ccc(O)cc1)c1c(O)cc(O)cc1O [Phloretin] |  |  |  | - |  | - |  | 0.166 | 0.05 | effect on H4K16ac levels [5]: had an effect solely on H4K16ac |
| NCCC(=O)N[C@@H](Cc1cnc[nH]1)C(=O)O [Carnosine] |  | 85.46 | 25 | - | - | - | did not change the level of SA-β-Gal staining |  |  |  |
| COC1=C(OC)C(=O)C(CCCCCCCCCCO)=C(C)C1=O [Idebenone, reference compound] | - |  |  | - |  | - |  | 0.021 | 0.01 |  |
| O=Cc1ccc(O)c(O)c1 [3,4-dihydroxybenzaldehyde] |  | 1.08 | 0.1 |  |  |  |  |  |  | effect on H3K9ac levels [3]: induced a similar effect on both targets; prevention of UV-induced cellular senescence ([4]; UVB-irradiated HDF, SA-β-Gal and HAS2 markers): did not prevent cellular senescence; effect on H4K16ac levels [5]: induced a similar effect on both targets |
| NC(=O)NC1NC(=O)NC1=O (centres unmarked) [Allantoin, reference compound] | - |  |  | - | - |  |  | 100 | 50 |  |
| COc1cc(/C=C/C(=O)O)ccc1O [Ferulic acid] |  | 16.5 |  | - | - | - | did not change the level of SA-β-Gal staining |  |  | Max. non-cyt. doses [2]: 7.5 mM |
